Measurements taken from the NIST ThermoML archive (doi:10.1021/acs.jced.8b00217).
± gives the expanded uncertainty stated by the source.

Test: relative permittivity at various frequencies (dimensionless); xn = mol fraction of the nth substance listed
Conditions: 298.15 K; 101.3 kPa; Liquid; Frequency=0.01 MHz; Coaxial cylinder capacitor; x1 = 0.3

| relative permittivity | Structure (SMILES) |
| --- | --- |
| 14.58 ± 0.65 | O=C1CCCC1 [cyclopentanone] + CCCCO |
| 19.16 ± 0.75 | O=C1CCCC1 [cyclopentanone] + CCO |

Second part, the molecule before the results:

| Structure (SMILES) | relative permittivity |
| --- | --- |
| O=C1CCCC1 [cyclopentanone] + C1CCCCC1 | 4.51 ± 0.39 |
| O=C1CCCC1 [cyclopentanone] + CCCCCCCCO | 9.5 ± 0.54 |
| O=C1CCCC1 [cyclopentanone] + CCCCCCO | 11.68 ± 0.59 |
| O=C1CCCC1 [cyclopentanone] + CCCCCCCCCCO | 8.07 ± 0.5 |

Same assay, conditions: 298.15 K; 101.3 kPa; Liquid; Frequency=0.01 MHz; Coaxial cylinder capacitor; x1 = 0.4

| relative permittivity | Structure (SMILES) |
| --- | --- |
| 13.97 ± 0.64 | O=C1CCCC1 [cyclopentanone] + CCCCO |
| 17.78 ± 0.72 | O=C1CCCC1 [cyclopentanone] + CCO |

More lines, now with the values behind:

| Structure (SMILES) | relative permittivity |
| --- | --- |
| O=C1CCCC1 [cyclopentanone] + C1CCCCC1 | 5.51 ± 0.42 |
| O=C1CCCC1 [cyclopentanone] + CCCCCCCCO | 9.65 ± 0.54 |
| O=C1CCCC1 [cyclopentanone] + CCCCCCO | 11.51 ± 0.59 |
| O=C1CCCC1 [cyclopentanone] + CCCCCCCCCCO | 8.43 ± 0.51 |

Same assay, conditions: 298.15 K; 101.3 kPa; Liquid; Frequency=0.01 MHz; Coaxial cylinder capacitor; x1 = 0.5

| relative permittivity | Structure (SMILES) |
| --- | --- |
| 13.5 ± 0.6 | O=C1CCCC1 [cyclopentanone] + CCCCO |
| 16.6 ± 0.7 | O=C1CCCC1 [cyclopentanone] + CCO |

Further lines, the molecule ahead of its results:

| Structure (SMILES) | relative permittivity |
| --- | --- |
| O=C1CCCC1 [cyclopentanone] + C1CCCCC1 | 6.6 ± 0.46 |
| O=C1CCCC1 [cyclopentanone] + CCCCCCCCO | 9.94 ± 0.55 |
| O=C1CCCC1 [cyclopentanone] + CCCCCCO | 11.48 ± 0.59 |
| O=C1CCCC1 [cyclopentanone] + CCCCCCCCCCO | 8.93 ± 0.52 |

Same assay, conditions: 298.15 K; 101.3 kPa; Liquid; Frequency=0.01 MHz; Coaxial cylinder capacitor; x1 = 0.6

| relative permittivity | Structure (SMILES) |
| --- | --- |
| 13.18 ± 0.62 | O=C1CCCC1 [cyclopentanone] + CCCCO |
| 15.59 ± 0.68 | O=C1CCCC1 [cyclopentanone] + CCO |

The next lines start with the molecule.

| Structure (SMILES) | relative permittivity |
| --- | --- |
| O=C1CCCC1 [cyclopentanone] + C1CCCCC1 | 7.78 ± 0.49 |
| O=C1CCCC1 [cyclopentanone] + CCCCCCCCO | 10.37 ± 0.56 |
| O=C1CCCC1 [cyclopentanone] + CCCCCCO | 11.59 ± 0.59 |
| O=C1CCCC1 [cyclopentanone] + CCCCCCCCCCO | 9.56 ± 0.54 |

Same assay, conditions: 298.15 K; 101.3 kPa; Liquid; Frequency=0.01 MHz; Coaxial cylinder capacitor; x1 = 0.7

| relative permittivity | Structure (SMILES) |
| --- | --- |
| 13.03 ± 0.62 | O=C1CCCC1 [cyclopentanone] + CCCCO |
| 14.77 ± 0.66 | O=C1CCCC1 [cyclopentanone] + CCO |

Continued, molecule first:

| Structure (SMILES) | relative permittivity |
| --- | --- |
| O=C1CCCC1 [cyclopentanone] + C1CCCCC1 | 9.06 ± 0.53 |
| O=C1CCCC1 [cyclopentanone] + CCCCCCCCO | 10.97 ± 0.57 |
| O=C1CCCC1 [cyclopentanone] + CCCCCCO | 11.87 ± 0.59 |
| O=C1CCCC1 [cyclopentanone] + CCCCCCCCCCO | 10.34 ± 0.56 |

Same assay, conditions: 298.15 K; 101.3 kPa; Liquid; Frequency=0.01 MHz; Coaxial cylinder capacitor; x1 = 0.8

| relative permittivity | Structure (SMILES) |
| --- | --- |
| 13.04 ± 0.62 | O=C1CCCC1 [cyclopentanone] + CCCCO |
| 14.16 ± 0.65 | O=C1CCCC1 [cyclopentanone] + CCO |

Further lines, the molecule ahead of its results:

| Structure (SMILES) | relative permittivity |
| --- | --- |
| O=C1CCCC1 [cyclopentanone] + C1CCCCC1 | 10.45 ± 0.56 |
| O=C1CCCC1 [cyclopentanone] + CCCCCCCCO | 11.69 ± 0.59 |
| O=C1CCCC1 [cyclopentanone] + CCCCCCO | 12.27 ± 0.6 |
| O=C1CCCC1 [cyclopentanone] + CCCCCCCCCCO | 11.27 ± 0.58 |

Same assay, conditions: 298.15 K; 101.3 kPa; Liquid; Frequency=0.01 MHz; Coaxial cylinder capacitor; x1 = 0.9

| relative permittivity | Structure (SMILES) |
| --- | --- |
| 13.19 ± 0.62 | O=C1CCCC1 [cyclopentanone] + CCCCO |
| 13.75 ± 0.64 | O=C1CCCC1 [cyclopentanone] + CCO |

The next lines start with the molecule.

| Structure (SMILES) | relative permittivity |
| --- | --- |
| O=C1CCCC1 [cyclopentanone] + C1CCCCC1 | 11.94 ± 0.6 |
| O=C1CCCC1 [cyclopentanone] + CCCCCCCCO | 12.55 ± 0.61 |
| O=C1CCCC1 [cyclopentanone] + CCCCCCO | 12.83 ± 0.62 |
| O=C1CCCC1 [cyclopentanone] + CCCCCCCCCCO | 12.31 ± 0.61 |

Same assay, conditions: 298.15 K; 101.3 kPa; Liquid; Frequency=0.01 MHz; Coaxial cylinder capacitor; x1 = 1

| relative permittivity | Structure (SMILES) |
| --- | --- |
| 13.52 ± 0.63 | O=C1CCCC1 [cyclopentanone] + CCCCO |
| 13.52 ± 0.63 | O=C1CCCC1 [cyclopentanone] + CCO |

Second part, the molecule before the results:

| Structure (SMILES) | relative permittivity |
| --- | --- |
| O=C1CCCC1 [cyclopentanone] + C1CCCCC1 | 13.52 ± 0.63 |
| O=C1CCCC1 [cyclopentanone] + CCCCCCCCO | 13.52 ± 0.63 |
| O=C1CCCC1 [cyclopentanone] + CCCCCCO | 13.52 ± 0.63 |
| O=C1CCCC1 [cyclopentanone] + CCCCCCCCCCO | 13.52 ± 0.63 |

Same assay, conditions: 298.15 K; 101.3 kPa; Liquid; Frequency=0.01 MHz; Coaxial cylinder capacitor; x2 = 0

| relative permittivity | Structure (SMILES) |
| --- | --- |
| 7.74 ± 0.49 | CCCCCCCCCCO [decan-1-ol] + O=C1CCCC1 |
| 24.37 ± 0.84 | CCO [ethanol] + O=C1CCCC1 |
| 9.85 ± 0.55 | CCCCCCCCO [octan-1-ol] + O=C1CCCC1 |
| 13.09 ± 0.62 | CCCCCCO [hexan-1-ol] + O=C1CCCC1 |

The next lines start with the molecule.

| Structure (SMILES) | relative permittivity |
| --- | --- |
| CCCCO [butan-1-ol] + O=C1CCCC1 | 17.49 ± 0.71 |
| C1CCCCC1 [cyclohexane] + O=C1CCCC1 | 2.02 ± 0.29 |
